Assay results from US12102638B2 (Urovant Sciences GmbH, priority 2017, dated 2024).
Several values for one entry are separate records, joined by “and”; a condition that tells them apart may be missing. Identical values can stand only once. Like-named read-outs stand apart in the source and are kept apart here.

What was measured:
Assay type in all cases: in vivo, human
[1] = multiple rising dose Phase 1 pharmacokinetics in healthy subjects; details: for concentration at 14 days: plasma, oral, read-out: Ctrough
[2] = relative bioequivalence of aqueous and non-aqueous tablets; details: 50 mg
Source text: An open-label, single-dose, randomized, two-period, two-treatment, two-sequence, crossover Phase 1 study evaluated the relative bioequivalence of two types of tablets with slightly different composition: aqueous tablet (test) and non-aqueous tablet (reference).

[3] = single-dose PK in patients with moderate hepatic impairment; details: single 100 mg
[4] = drug interaction studies: effect of co-administered medication on vibegron PK
Source text: However, these interactions are not expected to be clinically significant.

healthy subjects = experiment: thorough QT single oral dose study
[5] = multiple doses of 240 mg or 180 mg diltiazem

## O=C(Nc1ccc(C[C@@H]2CC[C@H]([C@H](O)c3ccccc3)N2)cc1)[C@@H]1CCc2nccc(=O)n21 [vibegron, (6S)—N-[4-[[(2S,5R)-5-[(R)-hydroxy(phenyl)methyl]pyrrolidin-2-yl]methyl]phenyl]-4-oxo-7,8-dihydro-6H-pyrrolo[1,2-a]pyrimidine-6-carboxamide]
[1]; 100 mg, elderly subjects
  fraction of dose excreted at steady state (fe0-24hr, ss): ~17%
[1]; 100 and 150 mg, young males
  fraction of dose excreted at steady state (fe0-24hr, ss): ~14%
[1]; Day 14
  steady state exposure (AUC0-24) higher in elderly Japanese than elderly non-Japanese: 35%
[1]; QD doses of 100 mg
  steady state Cmax in elderly compared to young males: ~1.3 fold
[1]; both sexes, human, 100 mg, multiple dose 100 mg, after 14 days, Elderly Male and Female
  concentration at 14 days: 54.2 ng/mL
[1]; human, in vivo
  Cmax higher in elderly and females than healthy young males: 50-70%
  Cmax increased in elderly Japanese compared to elderly non-Japanese: 82%
  steady state AUC in middle-aged females compared to middle-aged males: ~1.5 fold
  steady state exposures higher in Japanese than non-Japanese young males: ~30%
[1]; male, human, 50 mg, multiple dose 50 mg, after 14 days, healthy young males
  concentration at 14 days: 15.2 ng/mL
[1]; male, human, 100 mg, multiple dose 100 mg, after 14 days, healthy young males, Japanese
  concentration at 14 days: 41 ± 11 ng/mL
[1]; male, human, 100 mg, multiple dose 100 mg, after 14 days, healthy young males
  concentration at 14 days: 31.9 ng/mL
[1]; multiple dose 150 mg, after 14 days, healthy young males
  t1/2, harmonic mean ± pseudo SD: 79.2 ± 9.2 h
[1]; multiple dose 200 mg, after 14 days, healthy young males
  AUC0-24: 3200 ± 1120 ng·h/mL
[1]; multiple dose 400 mg, after 14 days, healthy young males
  t1/2, harmonic mean ± pseudo SD: 58.9 ± 5.9 h
[1]; once daily dosing
  time to steady state concentrations: ≤ 7 days
[1]; regardless of age
  exposures (AUC) higher in females compared with males: 50%
[2]
  AUC0-inf GMR test to reference tablet: 100.2%
  Cmax GMR test to reference tablet: 107.7%
[3]; Healthy Matched Control Subjects
  CL/F, geometric mean: 68.3 L/h
[3]; Moderate Hepatic Impairment
  CL/F, geometric mean: 56.0 L/h
[4]; in vivo
  effect of Tolterodine ER 4 mg on the pharmacokinetics of vibegron: no effect
[4]; [5]
  GM vibegron AUC0-inf increase: 63%
  GM vibegron Cmax increase: 68%
Healthy subjects; single 200 mg
  AUC, mean ± SD: 2430 ± 974 ng·h/mL
  Maximum Mean Placebo Corrected Change from Baseline Diastolic BP: 2.42 mmHg
  Maximum Mean Placebo Corrected Change from Baseline RR interval: -84.36 ms
  Maximum Mean Placebo Corrected Change from Baseline Systolic BP: 2.20 mmHg
Healthy subjects; single 200 mg and 400 mg
  upper limits of the 90% CIs of all QTcF mean differences from placebo: < 10 ms
Healthy subjects; single 200 mg, 0.5 hour
  QTcF LS mean difference from placebo: 2.90 ms
  QTcF change from baseline, LS mean: 1.90 ms
Healthy subjects; single 200 mg, 1 hour
  QTcF change from baseline, LS mean: 4.87 ms
Healthy subjects; single 200 mg, 1 hour (maximum)
  QTcF LS mean difference from placebo: 4.98 (3.07, 6.88) msec and 4.98 msec
Healthy subjects; single 200 mg, 2 hour
  QTcF LS mean difference from placebo: 2.14 ms
  QTcF change from baseline, LS mean: 2.06 ms
Healthy subjects; single 200 mg, 3 hour
  QTcF LS mean difference from placebo: 0.40 ms
  QTcF change from baseline, LS mean: 1.14 ms
Healthy subjects; single 200 mg, 4 hour
  QTcF LS mean difference from placebo: -0.83 ms
  QTcF change from baseline, LS mean: -0.40 ms
Healthy subjects; single 200 mg, 6 hour
  QTcF LS mean difference from placebo: -1.26 ms
  QTcF change from baseline, LS mean: -6.89 ms
Healthy subjects; single 200 mg, 8 hour
  QTcF LS mean difference from placebo: -1.24 ms
  QTcF change from baseline, LS mean: -9.59 ms
Healthy subjects; single 200 mg, 10 hour
  QTcF LS mean difference from placebo: -2.67 ms
  QTcF change from baseline, LS mean: -8.82 ms
Healthy subjects; single 200 mg, 12 hour
  QTcF LS mean difference from placebo: -3.72 ms
  QTcF change from baseline, LS mean: -6.82 ms
Healthy subjects; single 200 mg, 23.5 hour
  QTcF LS mean difference from placebo: 0.38 ms
  QTcF change from baseline, LS mean: -2.15 ms
Healthy subjects; single 400 mg
  AUC, mean ± SD: 6800 ± 2300 ng·h/mL
  Maximum Mean Placebo Corrected Change from Baseline Diastolic BP: 3.99 mmHg
  Maximum Mean Placebo Corrected Change from Baseline RR interval: -162.45 ms
  Maximum Mean Placebo Corrected Change from Baseline Systolic BP: 3.97 mmHg
Healthy subjects; single 400 mg, 0.5 hour
  QTcF LS mean difference from placebo: 3.37 ms
  QTcF change from baseline, LS mean: 2.37 ms
Healthy subjects; single 400 mg, 1 hour
  QTcF change from baseline, LS mean: 4.49 ms
Healthy subjects; single 400 mg, 1 hour (maximum)
  QTcF LS mean difference from placebo: 4.60 (2.71, 6.48) msec and 4.60 msec
Healthy subjects; single 400 mg, 2 hour
  QTcF LS mean difference from placebo: 0.81 ms
  QTcF change from baseline, LS mean: 0.73 ms
Healthy subjects; single 400 mg, 3 hour
  QTcF LS mean difference from placebo: -1.04 ms
  QTcF change from baseline, LS mean: -0.30 ms
Healthy subjects; single 400 mg, 4 hour
  QTcF LS mean difference from placebo: -2.96 ms
  QTcF change from baseline, LS mean: -2.53 ms
Healthy subjects; single 400 mg, 6 hour
  QTcF LS mean difference from placebo: -2.70 ms
  QTcF change from baseline, LS mean: -8.33 ms
Healthy subjects; single 400 mg, 8 hour
  QTcF LS mean difference from placebo: -3.24 ms
  QTcF change from baseline, LS mean: -11.60 ms
